Values after ≈ are worked out from the molar mass of the structure shown.
What was measured:
Candida albicans [1] = test: Inhibition of biofilm formation in Candida albicans MTCC 3017 incubated for 24 hrs by crystal violet staining based microtiter plate method; assay type: functional, organism-based; conditions: Candida albicans, MTCC 3017, 24 h; read-out: IC50
Nakaseomyces glabratus [2] = test: Antifungal activity against Candida glabrata MTCC 3019; assay type: functional
Escherichia coli = test: Inhibition of biofilm formation in Escherichia coli MTCC 739 incubated for 24 hrs by crystal violet staining based microtiter plate method; assay type: functional, organism-based
Pichia kudriavzevii [3] = test: Antifungal activity against Candida krusei MTCC 3020; assay type: functional
Staphylococcus aureus [4] = test: Inhibition of biofilm formation in Staphylococcus aureus […] incubated for 24 hrs by crystal violet staining based microtiter plate method; assay type: functional, organism-based
Candida albicans [5] = test: Antifungal activity against Candida albicans MTCC 227; assay type: functional
Candida albicans [6] = test: Fungicidal activity against Candida albicans MTCC 227; assay type: functional
Candida parapsilosis [7] = test: Fungicidal activity against Candida parapsilosis MTCC 1745; assay type: functional; conditions: Lodderomyces parapsilosis
Staphylococcus aureus [8] = test: Inhibition of biofilm formation in Staphylococcus aureus MLS16 MTCC 2940 incubated for 24 hrs by crystal violet staining based microtiter plate method; assay type: functional, organism-based
Candida albicans [9] = test: Antifungal activity against Candida albicans MTCC 4748; assay type: functional
Candida albicans [10] = test: Fungicidal activity against Candida albicans MTCC 4748; assay type: functional
Candida albicans [11] = test: Antifungal activity against Candida albicans MTCC 3018; assay type: functional
Candida albicans [12] = test: Antifungal activity against Candida albicans MTCC 3958; assay type: functional
Micrococcus luteus = test: Inhibition of biofilm formation in Micrococcus luteus MTCC 2470 incubated for 24 hrs by crystal violet staining based microtiter plate method; assay type: functional, organism-based
Pichia sporocuriosa [13] = test: Fungicidal activity against Issatchenkia hanoiensis MTCC 4755; assay type: functional
[Candida] aaseri [14] = Antifungal activity against Candida aaseri MTCC 1962; assay type: functional; conditions: Yamadazyma aaseri
Candida albicans [15] = test: Antifungal activity against Candida albicans MTCC 183; assay type: functional
Candida albicans [16] = test: Fungicidal activity against Candida albicans MTCC 3958; assay type: functional
Nakaseomyces glabratus [17] = test: Fungicidal activity against Candida glabrata MTCC 3019; assay type: functional
Bacillus subtilis = test: Inhibition of biofilm formation in Bacillus subtilis MTCC 121 incubated for 24 hrs by crystal violet staining based microtiter plate method; assay type: functional, organism-based
Candida albicans [18] = test: Antifungal activity against Candida albicans MTCC 854; assay type: functional
Candida albicans [19] = test: Fungicidal activity against Candida albicans MTCC 854; assay type: functional
Candida parapsilosis [20] = test: Antifungal activity against Candida parapsilosis MTCC 1745; assay type: functional; conditions: Lodderomyces parapsilosis
Pichia kudriavzevii [21] = test: Fungicidal activity against Candida krusei MTCC 3020; assay type: functional
Raoultella planticola = test: Inhibition of biofilm formation in Klebsiella planticola MTCC 530 incubated for 24 hrs by crystal violet staining based microtiter plate method; assay type: functional, organism-based
Pichia sporocuriosa [22] = test: Antifungal activity against Issatchenkia hanoiensis MTCC 4755; assay type: functional
[Candida] aaseri [23] = Fungicidal activity against Candida aaseri MTCC 1962; assay type: functional; conditions: Yamadazyma aaseri
Candida albicans [24] = test: Fungicidal activity against Candida albicans MTCC 183; assay type: functional
Candida albicans [25] = test: Fungicidal activity against Candida albicans MTCC 1637; assay type: functional
Candida albicans [26] = test: Antifungal activity against Candida albicans MTCC 1637; assay type: functional
Pseudomonas aeruginosa = test: Inhibition of biofilm formation in Pseudomonas aeruginosa MTCC 2453 incubated for 24 hrs by crystal violet staining based microtiter plate method; assay type: functional, organism-based
Candida albicans [27] = test: Fungicidal activity against Candida albicans MTCC 3018; assay type: functional

Clc1ccc(COC(Cn2ccnc2)c2ccc(Cl)cc2Cl)c(Cl)c1 (configuration not stated) [MICONAZOLE]
IC50 (Candida albicans [1]): 2500 nM
MIC (Nakaseomyces glabratus [2]): 18.7 µM (≈ 7.78 µg/mL)
IC50 (Escherichia coli): Not Active
MIC (Pichia kudriavzevii [3]): 18.7 µM (≈ 7.78 µg/mL)
IC50 (Staphylococcus aureus [4]): Not Active
MIC (Candida albicans [5]): 18.7 µM (≈ 7.78 µg/mL)
MFC (Candida albicans [6]): 18.7 µM (≈ 7.78 µg/mL)
MFC (Candida parapsilosis [7]): 18.7 µM (≈ 7.78 µg/mL)
IC50 (Staphylococcus aureus [8]): Not Active
MIC (Candida albicans [9]): 18.7 µM (≈ 7.78 µg/mL)
MFC (Candida albicans [10]): 18.7 µM (≈ 7.78 µg/mL)
MIC (Candida albicans [11]): 18.7 µM (≈ 7.78 µg/mL)
MIC (Candida albicans [12]): 18.7 µM (≈ 7.78 µg/mL)
IC50 (Micrococcus luteus): Not Active
MFC (Pichia sporocuriosa [13]): 18.7 µM (≈ 7.78 µg/mL)
MIC ([Candida] aaseri [14]): 18.7 µM (≈ 7.78 µg/mL)
MIC (Candida albicans [15]): 18.7 µM (≈ 7.78 µg/mL)
MFC (Candida albicans [16]): 18.7 µM (≈ 7.78 µg/mL)
MFC (Nakaseomyces glabratus [17]): 18.7 µM (≈ 7.78 µg/mL)
IC50 (Bacillus subtilis): Not Active
MIC (Candida albicans [18]): 18.7 µM (≈ 7.78 µg/mL)
MFC (Candida albicans [19]): 18.7 µM (≈ 7.78 µg/mL)
MIC (Candida parapsilosis [20]): 18.7 µM (≈ 7.78 µg/mL)
MFC (Pichia kudriavzevii [21]): 18.7 µM (≈ 7.78 µg/mL)
IC50 (Raoultella planticola): Not Active
MIC (Pichia sporocuriosa [22]): 18.7 µM (≈ 7.78 µg/mL)
MFC ([Candida] aaseri [23]): 18.7 µM (≈ 7.78 µg/mL)
MFC (Candida albicans [24]): 18.7 µM (≈ 7.78 µg/mL)
MFC (Candida albicans [25]): 18.7 µM (≈ 7.78 µg/mL)
MIC (Candida albicans [26]): 18.7 µM (≈ 7.78 µg/mL)
IC50 (Pseudomonas aeruginosa): Not Active
MFC (Candida albicans [27]): 18.7 µM (≈ 7.78 µg/mL)
